Source: publication PMC10104807, “Modulation of tau tubulin kinases (TTBK1 and TTBK2) impacts ciliogenesis” (Scientific Reports, 2023)
Values joined by “and” are separate entries in the source; they are usually repeats but may differ in a detail not shown here. Identical values can stand only once. Like-named read-outs stand apart in the source and are kept apart here.

Legend:
HIPK1 = biological target: T1, HIPK1 (Homo sapiens, UniProt Q86Z02); test: Eurofins enzymatic radiometric kinase assay; format: biochemical; settings: ATP at Km, duplicate
T1 construct: purchased Eurofins (radiometric) / Eurofins DiscoverX scanMAX / Reaction Biology / SignalChem
Procedure: (§1) The column labeled “# < 10 PoC in enzyme panel” in Table 1 reports the number of kinases in this 17-member panel inhibited > 90% by each analog.
(§2) Details about the substrate used, protein constructs, controls, and assay protocol for these kinase assays are available at the Eurofins website: https://www.eurofinsdiscoveryservices.com. Reaction Biology Corp. (RBC) radiometric HotSpot kinase assays were carried out at the Km value for ATP in dose–response (10-pt curve) format for MYLK4, RIPK5, and YSK4 in Table S2. Details about the substrate used, protein constructs, controls, and assay protocol for these kinase assays are available at the RBC website: https://www.reactionbiology.com/list-kinase-targets-us-facility. SignalChem developed an ADP-Glo assay to test for enzymatic inhibition of PIKfyve in dose–response (10-pt curve) format in duplicate.

TSSK1 = biological target: T2, TSSK1 (Homo sapiens, UniProt Q9BXA7); test: Eurofins enzymatic radiometric kinase assay; format: biochemical; settings: ATP at Km, duplicate
T2 construct: purchased Eurofins (radiometric) / Eurofins DiscoverX scanMAX / Reaction Biology / SignalChem
T2 sequence (Q9BXA7 1-367): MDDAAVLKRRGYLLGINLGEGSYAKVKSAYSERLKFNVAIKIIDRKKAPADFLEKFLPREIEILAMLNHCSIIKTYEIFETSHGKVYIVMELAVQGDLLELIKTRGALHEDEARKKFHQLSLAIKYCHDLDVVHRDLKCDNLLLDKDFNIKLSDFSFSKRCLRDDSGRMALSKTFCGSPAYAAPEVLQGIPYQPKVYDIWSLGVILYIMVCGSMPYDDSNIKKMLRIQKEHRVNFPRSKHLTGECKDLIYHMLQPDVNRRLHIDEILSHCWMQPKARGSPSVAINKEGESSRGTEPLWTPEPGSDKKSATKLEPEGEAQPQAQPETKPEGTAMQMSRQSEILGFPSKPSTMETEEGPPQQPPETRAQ
Procedure: as §1, §2

MARK3 = biological target: T3, MARK3 (Homo sapiens, UniProt P27448); test: Eurofins enzymatic radiometric kinase assay; format: biochemical; settings: ATP at Km, duplicate
T3 construct: purchased Eurofins (radiometric) / Eurofins DiscoverX scanMAX / Reaction Biology / SignalChem
Procedure: as §1, §2

TTBK2 = biological target: T4, TTBK2 (Homo sapiens, UniProt Q6IQ55); test: Eurofins enzymatic radiometric kinase assay; format: biochemical; settings: for TTBK2 PoC: 1 μM, duplicate, lower = greater inhibition
T4 construct: purchased Eurofins

[1] = biological target: 17-member enzymatic kinase assay panel; test: 17-member enzymatic kinase panel, number of kinases inhibited; format: biochemical; settings: 1 μM; of 17 kinases
TTBK1 kinase domain = biological target: T5, TTBK1 kinase domain (Homo sapiens, UniProt Q5TCY1); test: Thermal shift assay; format: binding; settings: kinase domain 2 µM, inhibitor 10 µM
T5 construct: Either the TTBK1 or TTBK2 kinase domain at 2 µM
Procedure: A Real-Time PCR Mx3005p machine (Stratagene) was used to measure the fluorescence spectrum. The Tm shift assays and data evaluation for melting temperatures were performed according to the previously described protocol.

[2] = Kinetic solubility (Analiza); format: physicochemical; settings: PBS pH 7.4, from 10 mM DMSO stocks
Excerpt: Calculated solubility values in Table 2 have been corrected for background nitrogen present in the DMSO and media.

MAP3K2 = biological target: T6, MAP3K2 (Homo sapiens, UniProt Q9Y2U5); test: DiscoverX scanMAX binding assay
T6 construct: purchased Eurofins (radiometric) / Eurofins DiscoverX scanMAX / Reaction Biology / SignalChem
Outline: (§3)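 Values are percent of control (PoC) from a kinase binding assay, obtained with test compound at 1 µM against a panel of 403 wild-type human kinases.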

MAP3K3 = biological target: T7, MAP3K3 (Homo sapiens, UniProt Q99759); test: DiscoverX scanMAX binding assay
T7 construct: purchased Eurofins (radiometric) / Eurofins DiscoverX scanMAX / Reaction Biology / SignalChem
Outline: as §3

PAK4 = biological target: T8, PAK4 (Homo sapiens, UniProt O96013); test: DiscoverX scanMAX binding assay
T8 construct: purchased Eurofins (radiometric) / Eurofins DiscoverX scanMAX / Reaction Biology / SignalChem
Outline: as §3

PAK7 = biological target: T9, PAK7 (Homo sapiens, UniProt Q9P286); test: DiscoverX scanMAX binding assay
T9 construct: purchased Eurofins (radiometric) / Eurofins DiscoverX scanMAX / Reaction Biology / SignalChem
Outline: as §3

[3] = biological target: T10, RPS6KA4(Kin.Dom.2-C-terminal) (Homo sapiens, UniProt O75676); test: DiscoverX scanMAX binding assay; settings: 1 μM
T10 construct: RPS6KA4(Kin.Dom.2-C-terminal); purchased Eurofins (radiometric) / Eurofins DiscoverX scanMAX / Reaction Biology / SignalChem
Outline: as §3

[4] = biological target: T11, JAK2(JH1domain-catalytic) (Homo sapiens, UniProt O60674); test: DiscoverX scanMAX binding assay
T11 construct: JAK2(JH1domain-catalytic); purchased Eurofins (radiometric) / Eurofins DiscoverX scanMAX / Reaction Biology / SignalChem
Outline: as §3

PRKCE = biological target: T12, PRKCE (Homo sapiens, UniProt Q02156); test: DiscoverX scanMAX binding assay; settings: 1 μM
T12 construct: purchased Eurofins (radiometric) / Eurofins DiscoverX scanMAX / Reaction Biology / SignalChem
Outline: as §3

PAK6 = biological target: T13, PAK6 (Homo sapiens, UniProt Q9NQU5); test: DiscoverX scanMAX binding assay
T13 construct: purchased Eurofins (radiometric) / Eurofins DiscoverX scanMAX / Reaction Biology / SignalChem
Outline: as §3

AURKB = biological target: T14, AURKB (Homo sapiens, UniProt Q96GD4); test: DiscoverX scanMAX binding assay; settings: 1 μM
T14 construct: purchased Eurofins (radiometric) / Eurofins DiscoverX scanMAX / Reaction Biology / SignalChem
Outline: as §3

CSNK1D = biological target: T15, CSNK1D (Homo sapiens, UniProt P48730); test: DiscoverX scanMAX binding assay; settings: 1 μM
T15 construct: purchased Eurofins (radiometric) / Eurofins DiscoverX scanMAX / Reaction Biology / SignalChem
Outline: as §3

PRKX = biological target: T16, PRKX (Homo sapiens, UniProt P51817); test: DiscoverX scanMAX binding assay
T16 construct: purchased Eurofins (radiometric) / Eurofins DiscoverX scanMAX / Reaction Biology / SignalChem
Outline: as §3

MYLK4 = biological target: T17, MYLK4 (Homo sapiens, UniProt Q86YV6); test: DiscoverX scanMAX binding assay; settings: 1 μM
T17 construct: purchased Eurofins (radiometric) / Eurofins DiscoverX scanMAX / Reaction Biology / SignalChem
Outline: as §3

PIKfyve = biological target: T18, PIKfyve (Homo sapiens, UniProt Q9Y2I7); test: DiscoverX scanMAX binding assay; settings: 1 μM
T18 construct: purchased Eurofins (radiometric) / Eurofins DiscoverX scanMAX / Reaction Biology / SignalChem
Outline: as §3

MEK4 = biological target: T19, MEK4 (Homo sapiens, UniProt P45985); test: DiscoverX scanMAX binding assay; settings: 1 μM
T19 construct: purchased Eurofins (radiometric) / Eurofins DiscoverX scanMAX / Reaction Biology / SignalChem
Outline: as §3

TTBK1 = system: TTBK1; set-up: method as in earlier work; settings: screened at 1 μM; cited from earlier work
RIPK5 = biological target: T20, RIPK5 (Homo sapiens, UniProt Q6XUX3); test: DiscoverX scanMAX binding assay; settings: 1 μM
T20 construct: purchased Eurofins (radiometric) / Eurofins DiscoverX scanMAX / Reaction Biology / SignalChem
Outline: as §3

[5] = ATP at Km, dose–response 9-pt curve

T1 sequence (Q86Z02 whole entry): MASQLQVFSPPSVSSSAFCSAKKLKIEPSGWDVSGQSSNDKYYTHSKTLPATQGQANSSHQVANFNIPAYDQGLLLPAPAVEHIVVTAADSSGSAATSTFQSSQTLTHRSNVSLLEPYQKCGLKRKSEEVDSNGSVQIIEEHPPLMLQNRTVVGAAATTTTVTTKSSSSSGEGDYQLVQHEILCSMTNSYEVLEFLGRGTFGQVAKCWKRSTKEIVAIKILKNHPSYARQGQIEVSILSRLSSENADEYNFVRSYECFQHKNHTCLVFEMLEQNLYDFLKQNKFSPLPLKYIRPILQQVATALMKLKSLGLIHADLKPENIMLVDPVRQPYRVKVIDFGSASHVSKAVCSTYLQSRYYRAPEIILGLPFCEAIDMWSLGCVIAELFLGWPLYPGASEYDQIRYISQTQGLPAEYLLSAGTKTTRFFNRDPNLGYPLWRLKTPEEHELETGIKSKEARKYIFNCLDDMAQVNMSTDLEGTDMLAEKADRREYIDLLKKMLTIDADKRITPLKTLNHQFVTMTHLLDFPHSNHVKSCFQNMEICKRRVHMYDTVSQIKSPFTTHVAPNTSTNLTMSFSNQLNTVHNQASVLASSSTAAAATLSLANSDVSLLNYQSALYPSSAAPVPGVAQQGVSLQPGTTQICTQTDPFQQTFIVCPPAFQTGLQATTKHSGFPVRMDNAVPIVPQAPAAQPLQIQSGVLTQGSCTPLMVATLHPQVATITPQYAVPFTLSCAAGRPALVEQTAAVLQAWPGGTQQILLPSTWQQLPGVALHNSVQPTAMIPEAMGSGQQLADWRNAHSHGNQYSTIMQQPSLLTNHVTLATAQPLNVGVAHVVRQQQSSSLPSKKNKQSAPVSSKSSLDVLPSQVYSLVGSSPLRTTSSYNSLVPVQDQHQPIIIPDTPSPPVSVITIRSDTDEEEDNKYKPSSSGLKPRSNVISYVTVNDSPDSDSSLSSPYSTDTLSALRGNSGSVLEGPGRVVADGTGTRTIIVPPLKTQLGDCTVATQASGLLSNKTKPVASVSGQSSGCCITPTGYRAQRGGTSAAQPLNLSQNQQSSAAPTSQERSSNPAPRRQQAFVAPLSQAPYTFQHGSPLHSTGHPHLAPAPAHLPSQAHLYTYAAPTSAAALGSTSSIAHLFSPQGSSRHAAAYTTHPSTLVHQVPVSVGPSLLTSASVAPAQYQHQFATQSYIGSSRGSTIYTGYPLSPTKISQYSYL
T3 sequence (P27448 whole entry): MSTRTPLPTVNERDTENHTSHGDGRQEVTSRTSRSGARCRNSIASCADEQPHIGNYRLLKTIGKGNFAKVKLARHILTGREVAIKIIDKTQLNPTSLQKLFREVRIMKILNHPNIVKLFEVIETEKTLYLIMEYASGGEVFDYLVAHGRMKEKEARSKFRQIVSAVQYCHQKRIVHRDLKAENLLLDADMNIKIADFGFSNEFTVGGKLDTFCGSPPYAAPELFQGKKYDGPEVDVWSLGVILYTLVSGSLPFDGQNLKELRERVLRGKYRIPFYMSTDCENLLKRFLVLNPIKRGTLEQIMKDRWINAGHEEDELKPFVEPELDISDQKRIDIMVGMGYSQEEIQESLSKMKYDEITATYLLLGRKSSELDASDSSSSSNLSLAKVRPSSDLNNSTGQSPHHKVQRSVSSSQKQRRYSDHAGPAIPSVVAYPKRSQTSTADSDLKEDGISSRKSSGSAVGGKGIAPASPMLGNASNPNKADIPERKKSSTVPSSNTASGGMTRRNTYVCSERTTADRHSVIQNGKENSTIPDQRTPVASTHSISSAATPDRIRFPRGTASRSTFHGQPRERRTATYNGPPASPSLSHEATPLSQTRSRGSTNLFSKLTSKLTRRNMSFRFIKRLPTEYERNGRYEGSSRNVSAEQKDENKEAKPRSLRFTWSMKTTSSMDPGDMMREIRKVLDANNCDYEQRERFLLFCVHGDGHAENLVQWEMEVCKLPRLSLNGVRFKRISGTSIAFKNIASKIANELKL
T4 sequence (Q6IQ55 whole entry): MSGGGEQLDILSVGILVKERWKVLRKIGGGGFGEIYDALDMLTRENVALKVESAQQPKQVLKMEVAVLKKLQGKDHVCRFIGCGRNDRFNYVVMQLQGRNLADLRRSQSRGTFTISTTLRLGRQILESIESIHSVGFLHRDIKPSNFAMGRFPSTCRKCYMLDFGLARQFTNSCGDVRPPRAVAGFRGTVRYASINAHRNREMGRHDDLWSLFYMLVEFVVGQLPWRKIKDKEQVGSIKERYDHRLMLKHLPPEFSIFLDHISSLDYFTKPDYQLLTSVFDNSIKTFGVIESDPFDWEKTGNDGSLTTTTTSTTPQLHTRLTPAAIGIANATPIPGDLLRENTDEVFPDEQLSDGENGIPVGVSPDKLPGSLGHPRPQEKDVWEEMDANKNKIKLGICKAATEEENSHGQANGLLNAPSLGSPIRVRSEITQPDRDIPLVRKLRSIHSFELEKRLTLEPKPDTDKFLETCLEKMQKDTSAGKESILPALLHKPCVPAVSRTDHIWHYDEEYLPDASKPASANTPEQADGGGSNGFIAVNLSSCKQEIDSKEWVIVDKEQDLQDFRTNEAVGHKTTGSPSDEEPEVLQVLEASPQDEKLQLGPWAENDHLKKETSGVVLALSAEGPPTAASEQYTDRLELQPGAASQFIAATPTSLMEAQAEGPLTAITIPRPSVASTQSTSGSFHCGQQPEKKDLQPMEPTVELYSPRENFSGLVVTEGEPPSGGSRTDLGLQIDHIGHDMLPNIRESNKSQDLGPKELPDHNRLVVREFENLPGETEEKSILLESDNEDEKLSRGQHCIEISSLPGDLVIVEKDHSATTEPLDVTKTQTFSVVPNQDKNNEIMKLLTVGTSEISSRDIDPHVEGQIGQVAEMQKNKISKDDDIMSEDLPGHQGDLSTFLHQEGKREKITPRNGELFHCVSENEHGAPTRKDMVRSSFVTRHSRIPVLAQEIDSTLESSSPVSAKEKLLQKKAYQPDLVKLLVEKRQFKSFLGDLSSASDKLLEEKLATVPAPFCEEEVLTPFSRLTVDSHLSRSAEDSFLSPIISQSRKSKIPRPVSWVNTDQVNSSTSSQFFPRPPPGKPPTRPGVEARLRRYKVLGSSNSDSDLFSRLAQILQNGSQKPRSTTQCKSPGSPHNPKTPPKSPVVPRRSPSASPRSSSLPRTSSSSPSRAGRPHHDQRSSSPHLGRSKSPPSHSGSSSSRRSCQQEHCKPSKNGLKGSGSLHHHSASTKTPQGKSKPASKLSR
T17 sequence (Q86YV6 whole entry): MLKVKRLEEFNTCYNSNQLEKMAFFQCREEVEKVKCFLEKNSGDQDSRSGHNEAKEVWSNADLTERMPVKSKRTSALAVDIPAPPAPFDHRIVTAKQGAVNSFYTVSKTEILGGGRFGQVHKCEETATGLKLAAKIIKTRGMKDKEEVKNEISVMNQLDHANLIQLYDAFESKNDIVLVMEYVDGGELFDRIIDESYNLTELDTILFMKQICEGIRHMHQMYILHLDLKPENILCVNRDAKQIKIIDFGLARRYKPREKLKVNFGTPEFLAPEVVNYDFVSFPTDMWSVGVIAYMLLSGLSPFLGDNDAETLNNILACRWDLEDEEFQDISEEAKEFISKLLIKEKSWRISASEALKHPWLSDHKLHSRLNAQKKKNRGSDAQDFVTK
T5 sequence (Q5TCY1 13-320): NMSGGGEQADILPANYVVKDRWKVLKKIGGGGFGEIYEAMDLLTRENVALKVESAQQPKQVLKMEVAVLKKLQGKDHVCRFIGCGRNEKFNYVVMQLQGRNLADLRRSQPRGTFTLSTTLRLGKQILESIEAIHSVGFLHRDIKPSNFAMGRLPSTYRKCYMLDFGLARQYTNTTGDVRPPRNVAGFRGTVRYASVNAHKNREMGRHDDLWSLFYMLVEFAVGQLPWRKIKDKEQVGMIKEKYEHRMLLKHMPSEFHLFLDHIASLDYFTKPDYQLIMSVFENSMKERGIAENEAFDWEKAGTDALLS
T12 sequence (Q02156 whole entry): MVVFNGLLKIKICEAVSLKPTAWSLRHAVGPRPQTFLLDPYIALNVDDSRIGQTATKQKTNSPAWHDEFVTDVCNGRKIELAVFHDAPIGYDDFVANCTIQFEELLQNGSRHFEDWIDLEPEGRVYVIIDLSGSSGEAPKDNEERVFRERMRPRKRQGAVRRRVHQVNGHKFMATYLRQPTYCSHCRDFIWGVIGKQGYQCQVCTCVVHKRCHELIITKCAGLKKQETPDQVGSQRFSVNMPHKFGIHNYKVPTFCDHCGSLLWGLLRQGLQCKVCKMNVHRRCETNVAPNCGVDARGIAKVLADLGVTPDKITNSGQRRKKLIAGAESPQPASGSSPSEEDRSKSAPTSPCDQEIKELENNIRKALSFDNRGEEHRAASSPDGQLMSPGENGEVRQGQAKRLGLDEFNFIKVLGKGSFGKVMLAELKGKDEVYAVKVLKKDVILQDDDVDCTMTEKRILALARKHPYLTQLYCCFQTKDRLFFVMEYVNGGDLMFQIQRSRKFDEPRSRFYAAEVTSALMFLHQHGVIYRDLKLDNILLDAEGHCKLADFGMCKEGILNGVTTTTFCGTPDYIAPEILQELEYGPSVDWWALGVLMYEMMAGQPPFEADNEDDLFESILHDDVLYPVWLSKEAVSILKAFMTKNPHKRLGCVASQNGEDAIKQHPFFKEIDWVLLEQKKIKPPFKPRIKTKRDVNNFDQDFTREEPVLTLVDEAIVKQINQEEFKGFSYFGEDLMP
T10 sequence (O75676 411-674 limits assumed): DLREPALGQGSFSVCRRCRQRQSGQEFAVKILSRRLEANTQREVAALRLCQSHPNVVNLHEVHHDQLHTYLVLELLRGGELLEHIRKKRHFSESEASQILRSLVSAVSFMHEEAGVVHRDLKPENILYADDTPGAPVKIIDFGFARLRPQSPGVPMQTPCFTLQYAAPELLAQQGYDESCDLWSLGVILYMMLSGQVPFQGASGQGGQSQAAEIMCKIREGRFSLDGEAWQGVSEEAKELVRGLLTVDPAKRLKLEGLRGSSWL

Compound | HIPK1 PoC at 1 μM (HIPK1) [PoC] | TSSK1 PoC at 1 μM (TSSK1) [PoC] | MARK3 PoC at 1 μM (MARK3) [PoC] | TTBK2 PoC (TTBK2; ATP at Km) | # kinases < 10 PoC in enzyme panel [1] | ΔTm TTBK1 (TTBK1 kinase domain) [°C] | RPS6KA4(Kin.Dom.2-C-terminal) % control at 1000nM [3] [% control] | PRKCE % control at 1000nM (PRKCE) [% control] | CSNK1D % control at 1000nM / DiscoverX PoC value (CSNK1D) [% control] | IC50 (TTBK2; [5]) [µM] | MYLK4 % control at 1000nM / DiscoverX PoC value (MYLK4) [% control] | PIKFYVE % control at 1000nM / DiscoverX PoC value (PIKfyve) [% control] | MEK4 (MKK4) % control at 1000nM / DiscoverX PoC value (MEK4) [% control] | further results
CC(C)(O)C#Cc1ccc2[nH]c3c(c2c1)-c1nc(N)ncc1CCCC3 [Compound 2] | 96 | 82 | 76 | 69 PoC and 69/NT PoC | 1 |  |  |  |  |  |  |  |  | 
CC(C)(O)C#Cc1ccc2[nH]cc(-c3ccnc(N)n3)c2c1 [Compound 3] | 87 | 30 | 46 | 24 PoC | 3 | 6.9 | 0.1 | 6.8 | 8.4 | 0.384 |  |  |  | Kinetic solubility [2]: 133 µM; MAP3K2 % control at 1000nM (MAP3K2; 1 μM): 0.8 % control; MAP3K3 % control at 1000nM (MAP3K3; 1 μM): 7.6 % control; PAK4 % control at 1000nM (PAK4; 1 μM): 8.3 % control; PAK7 % control at 1000nM (PAK7; 1 μM): 0.4 % control; JAK2(JH1domain-catalytic) % control at 1000nM ([4]; 1 μM): 0.5 % control; PAK6 % control at 1000nM (PAK6; 1 μM): 6.7 % control; AURKB % control at 1000nM (AURKB): 3.7 % control; PRKX % control at 1000nM (PRKX; 1 μM): 3.5 % control
CC(C)(O)C#Cc1ccc2[nH]c3c(c2c1)-c1nc(N)ncc1CC3 [Compound 1] | 76 | 48 | 56 | 43 PoC | 2 | 6.1 | 7.3 | 3.1 | 3 | 1.21 | 9.4 | 0 | 7.3 | IC50 (TTBK2): > 1 µM
CC(C)(O)C#Cc1ccc2[nH]c3c(c2c1)-c1nc(N)ncc1CCC3 [AMG28, reference compound] | 67 | 10 | 12 | 20 PoC |  |  |  |  |  |  | 2.8 | 0.4 | 8.6 | TTBK1 activity remaining (TTBK1): 8%; binding, percent of control at 1 µM (MAP3K2; read-out: MAP3K2 % control at 1000nM): 3.7%; percent of control (binding) at 1 µM (MAP3K3; read-out: MAP3K3 % control at 1000nM): 7.2%; RIPK5 % control at 1000nM / DiscoverX PoC value (RIPK5): 2.2 % control; binding, percent of control at 1 µM (PAK4; read-out: PAK4 % control at 1000nM): 5.7%; percent of control (kinase binding) at 1 µM (PAK7; read-out: PAK7 % control at 1000nM): 0.3%; percent of control (binding) at 1 µM ([4]; read-out: JAK2(JH1domain-catalytic) % control at 1000nM): 6.9%; percent of control (binding) at 1 µM (PAK6; read-out: PAK6 % control at 1000nM): 2.9%; percent of control (binding) at 1 µM (PRKX; read-out: PRKX % control at 1000nM): 4.3%
COC(C)(C)C#Cc1ccc2[nH]c3c(c2c1)-c1nc(N)ncc1CCC3 [Compound 11] | 96 | 89 | 104 | 110 PoC and 110/NT PoC | 1 |  |  |  |  |  |  |  |  | 
